# Patent publication US9463256B2, “Pretargeting kit, method and agents used therein” (KONINKLIJKE PHILIPS N.V., priority 2010, dated 2016)
# Tests used:
# [1] = Second order kinetic constants of the reactions between CC49-TCO constructs and ^177Lu-28; format: physicochemical; conditions: for Second order kinetic constant, PEG10 Spacer / Second order kinetic constant, No Spacer: TCO conjugated to CC49, reaction with ^177Lu-28 in PBS, pH 7.4 at 37° C.; for Second order kinetic constant: new TCOs conjugated to CC49, reaction with ^177Lu-28, procedures of Example 5
# Description: Typically, 1 mg CC49 (5 mg/mL solution in PBS) was modified with 0.6 molar (for kinetic measurements) or 10 molar eq. (for in vivo studies) of TCO-NHS constructs in a total volume of 250 μL PBS. The pH was adjusted to 9 with 1 M sodium carbonate buffer. The reactions were carried out under agitation for 30 min at RT in the dark. Subsequently, the TCO-modified mAbs were extensively washed with PBS using Amicon Ultra-15 centrifugal devices. The numbers of TCO groups per antibody were determined with a tetrazine titration, outlined below.
# Tetrazine-DOTA 28 was radiolabeled with carrier-added ^177Lu. mAb (25 μg) modified with ca. 0.6 molar eq. TCO was reacted with 3 molar eq. of ^177Lu-28 (0.5 nM). mAb (25 μg) modified with ca. 10 molar eq. TCO was reacted with 15 molar eq. of ^177Lu-28 (2.5 nM). The reactions were carried out in 50 μL PBS pH 7.4 at 37° C. for 10 min. The reaction mixtures were analyzed by SDS-PAGE and phosphor imager and the reaction yields were determined from the radioactivity in the bands corresponding to the mAb. The counts were quantified with AIDA Image Analyzer software (Raytest).
# Tetrazine-DOTA 28 was radiolabeled with carrier-added ^177Lu at a specific activity of 3 MBq/μg. ^177Lu-28 (33 nM) was reacted with increasing concentrations of CC49 modified with 1 eq. of TCO (0.33, 1, and 1.67 μM) in 200 μL PBS, pH 7.4 at 37° C. for 5 min. At selected times (15, 30, 45, 60, 90, 120, 180, and 300 sec) a 20 μL sample was withdrawn and quenched with tetrazine 6 (FIG. 5; described in Rossin et al. Angew Chem Int Ed 2010, 49, 3375) (1.5 μL, 5 mg/mL in DMF). Aliquots of each mixture were analyzed by SDS-PAGE and phosphor imager and the cycloaddition yields were determined from the radioactivity in the bands corresponding to the mAb. The counts were quantified with AIDA Image Analyzer software (Raytest).
# The newly synthesized TCO constructs were evaluated with respect to their reactivity towards tetrazine 28. The procedures are described in Example 5.
# [2] = test system: LS174T tumor model; experiment: Biodistribution experiments in tumor bearing mice pretargeted with CC49-TCO constructs; format: in vivo, Nude female Balb/C mice; conditions: for ^177Lu-tetrazine in Blood / ^177Lu-tetrazine in Bone / ^177Lu-tetrazine in Brain / ^177Lu-tetrazine in Heart / ^177Lu-tetrazine in Kidney / ^177Lu-tetrazine in Liver / ^177Lu-tetrazine in Lung / ^177Lu-tetrazine in Muscle / ^177Lu-tetrazine in Spleen / ^177Lu-tetrazine in Tumor: 3 h after injection
# Description: (§1) LS174T tumor model. The human colon cancer cell line LS174T was obtained from the ATCC and maintained in Eagle's minimal essential medium (Sigma) supplemented with 10% heat inactivated fetal calf serum (Gibco), penicillin (100 U/mL), streptomycin (100 μg/mL) and 2 mM Glutamax. Nude female Balb/C mice (20-25 g body weight, Charles River Laboratories) were inoculated subcutaneously with 5×10^6 cells in 100 μL sterile PBS.
# Dual isotope biodistribution experiments were performed by injecting tumor bearing mice (n=3) intravenously with ^125I-labeled CC49-TCO constructs with and without PEG10 spacer (100 μg/100 μL per mouse, ca. […] 0.8 MBq). Three hours after tetrazine administration, the animals were anesthetized with isoflurane and sacrificed by cervical dislocation. Blood was withdrawn by heart puncture and organs and tissues of interest were harvested, blotted dry and weighed. The radioactivity of the samples was measured in a γ-counter along with standards to determine the % ID/gram. The energy windows were set to 10-80 keV and 100-510 keV for ^125I and ^111In, respectively.
# [3] = test system: LS174T tumor model; experiment: Biodistribution of ^177Lu-tetrazine 28 in tumor bearing mice pretargeted with CC49-TCO 44b; format: in vivo, Nude female Balb/C mice; conditions: 3 h after injection, 50 h after ^125I-CC49-TCO-44b, two doses of clearing agent
# Description: as §1
# Tumor-bearing mice (see Methods; 100 mm^3 tumor size; n=4) were injected with ^125I-CC49 functionalized with 7.5 TCO 44b groups (100 μg/mouse, ca. 0.2 MBq). Thirty and 48 hours post-mAb injection the mice received one dose of clearing agent (galactose-MSA-tetrazine, 160 μg/dose) followed 2 h later by ^177Lu-tetrazine 28 (10 eq. with respect to the mAb, ca. 0.5 MBq). Three hours post-tetrazine injection the mice were anesthetized and sacrificed by cervical dislocation, blood was withdrawn by heart puncture, organs and tissues of interest were harvested and blotted dry. All collected samples were weighed and added with 1 mL PBS. The sample radioactivity was measured in a gamma-counter with a dual-isotope protocol (10-80 keV window for ^125I and 155-380 keV window for ^177Lu) along with standards to determine the percent injected dose per gram tissue (% ID/g).
# [4] = 1 day pretargeting with CC49-23a
# [5] = 4 days pretargeting with CC49-23a
smiles,measurement,setting,value
"O=C(CCOCCOCCOCCOCCOCCOCCOCCOCCOCCOCCOCCOCCNC(=O)c1ccc(NC(=O)OC2CC/C=C/CCC2)cc1)ON1C(=O)CCC1=O (centres unmarked) [27a, (E-major)-2,5-dioxopyrrolidin-1-yl 1-(4-(((cyclooct-4-en-1-yloxy)carbonyl)amino)phenyl)-1-oxo-5,8,11,14,17,20,23,26,29,32,35,38-dodecaoxa-2-azahentetracontan-41-oate]","Second order kinetic constant, PEG10 Spacer",[1],(27a) 11030 ± 250 M^−1s^−1
"CC(C)(OC1CC/C=C/CCC1)C(=O)ON1C(=O)CCC1=O (single isomer, unassigned) [49a, (E-Major)-2,5-dioxopyrrolidin-1-yl 2-(cyclooct-4-en-1-yloxy)-2-methylpropanoate]",Second order kinetic constant,[1],25080 ± 3865 M⁻¹ s⁻¹
"O=C(COC1CC/C=C/CCC1)ON1C(=O)CCC1=O (single isomer, unassigned) [44a, (E-Major)-2,5-dioxopyrrolidin-1-yl 2-(cyclooct-4-en-1-yloxy)acetate]",Second order kinetic constant,[1],20640 ± 485 M⁻¹ s⁻¹
"O=C(Nc1ccc(C(=O)ON2C(=O)CCC2=O)cc1)OC1CC/C=C/CCC1 (centres unmarked) [14a, (E-major)-2,5-dioxopyrrolidin-1-yl 4-(((cyclooct-4-en-1-yloxy)carbonyl)amino)benzoate]","Second order kinetic constant, No Spacer",[1],(14a) 11350 ± 550 M^−1s^−1
"O=C(Nc1ccc(C(=O)ON2C(=O)CCC2=O)cc1)OC1CC/C=C/CCC1 (centres unmarked) [14b, (E-minor)-2,5-dioxopyrrolidin-1-yl 4-(((cyclooct-4-en-1-yloxy)carbonyl)amino)benzoate]","Second order kinetic constant, No Spacer",[1],(14b) 66550 ± 8800 M^−1s^−1
"O=C(CCOCCOCCOCCOCCOCCOCCOCCOCCOCCOCCOCCOCCNC(=O)c1ccc(COC2CC/C=C/CCC2)cc1)ON1C(=O)CCC1=O (centres unmarked) [23b, (E-minor)-2,5-Dioxopyrrolidin-1-yl 1-(4-((cyclooct-4-en-1-yloxy)methyl)phenyl)-1-oxo-5,8,11,14,17,20,23,26,29,32,35,38-dodecaoxa-2-azahentetracontan-41-oate]","Second order kinetic constant, PEG10 Spacer",[1],(23b) 156400 ± 3100 M^−1s^−1
O=C([O-])CN1CCN(CC(=O)[O-])CCN(CC(=O)NCCOCCOCCOCCOCCOCCOCCOCCOCCOCCOCCOCCNC(=O)CCCC(=O)Nc2ccc(-c3nnc(-c4ccccn4)nn3)nc2)CCN(CC(=O)[O-])CC1.[177Lu+3] [^177Lu-tetrazine 28],^177Lu-tetrazine in Blood,[2]; [4],1.06 ± 0.34 % ID/gram
same,^177Lu-tetrazine in Bone,[2]; [4],0.11 ± 0.02 % ID/gram
same,^177Lu-tetrazine in Brain,[2]; [4],0.03 ± 0.02 % ID/gram
same,^177Lu-tetrazine in Heart,[2]; [4],0.20 ± 0.02 % ID/gram
same,^177Lu-tetrazine in Kidney,[2]; [4],1.73 ± 0.31 % ID/gram
same,^177Lu-tetrazine in Liver,[2]; [4],0.61 ± 0.15 % ID/gram
same,^177Lu-tetrazine in Lung,[2]; [4],0.32 ± 0.03 % ID/gram
same,^177Lu-tetrazine in Muscle,[2]; [4],0.06 ± 0.03 % ID/gram
same,^177Lu-tetrazine in Spleen,[2]; [4],0.30 ± 0.09 % ID/gram
same,^177Lu-tetrazine in Tumor,[2]; [4],3.09 ± 0.01 % ID/gram
same,^177Lu-tetrazine in Tumor,"[2]; 1 day pretargeting with CC49-23a, listed as 177Lu-tetrazine",3.09±0.01 % ID/gram
same,^177Lu-tetrazine in Blood,[2]; [5],0.04 ± 0.01 % ID/gram
same,^177Lu-tetrazine in Bone,[2]; [5],0.06 ± 0.01 % ID/gram
same,^177Lu-tetrazine in Brain,[2]; [5],0.01 ± 0.00 % ID/gram
same,^177Lu-tetrazine in Heart,[2]; [5],0.04 ± 0.00 % ID/gram
same,^177Lu-tetrazine in Kidney,[2]; [5],1.73 ± 0.22 % ID/gram
same,^177Lu-tetrazine in Liver,[2]; [5],0.31 ± 0.03 % ID/gram
same,^177Lu-tetrazine in Lung,[2]; [5],0.13 ± 0.05 % ID/gram
same,^177Lu-tetrazine in Muscle,[2]; [5],0.02 ± 0.01 % ID/gram
same,^177Lu-tetrazine in Spleen,[2]; [5],0.20 ± 0.00 % ID/gram
same,^177Lu-tetrazine in Tumor,[2]; [5],0.86 ± 0.39 % ID/gram
same,^177Lu-tetrazine in Tumor,"[2]; 4 days pretargeting with CC49-23a, listed as 177Lu-tetrazine",0.86±0.39 % ID/gram
same,tumor-to-blood ratio (T/B),[2]; ^177Lu-tetrazine administered 4 days after the mAb CC49-23a,21.3±4.0
same,tumor-to-blood ratio (T/B),"[2]; ^177Lu-tetrazine, mice pre-treated with CC49-23a 24 h before injection of the tetrazine",3.1±1.0
same,"Tumor/Blood ratio, ^177Lu-tetrazine",[3],304 ± 80
same,"Tumor/Bone ratio, ^177Lu-tetrazine",[3],142 ± 59
same,"Tumor/Brain ratio, ^177Lu-tetrazine",[3],1674 ± 243
same,"Tumor/Heart ratio, ^177Lu-tetrazine",[3],187 ± 20
same,"Tumor/Kidney ratio, ^177Lu-tetrazine",[3],6 ± 2
same,"Tumor/Liver ratio, ^177Lu-tetrazine",[3],50 ± 10
same,"Tumor/Lung ratio, ^177Lu-tetrazine",[3],39 ± 8
same,"Tumor/Muscle ratio, ^177Lu-tetrazine",[3],328 ± 96
same,"Tumor/Spleen ratio, ^177Lu-tetrazine",[3],108 ± 22
same,^177Lu-tetrazine in Blood,[3],0.03 ± 0.00 % ID/gram
same,^177Lu-tetrazine in Bone,[3],0.08 ± 0.04 % ID/gram
same,^177Lu-tetrazine in Brain,[3],0.01 ± 0.00 % ID/gram
same,^177Lu-tetrazine in Heart,[3],0.05 ± 0.01 % ID/gram
same,^177Lu-tetrazine in Kidney,[3],1.50 ± 0.24 % ID/gram
same,^177Lu-tetrazine in Liver,[3],0.19 ± 0.02 % ID/gram
same,^177Lu-tetrazine in Lung,[3],0.24 ± 0.02 % ID/gram
same,^177Lu-tetrazine in Muscle,[3],0.03 ± 0.00 % ID/gram
same,^177Lu-tetrazine in Spleen,[3],0.09 ± 0.01 % ID/gram
same,^177Lu-tetrazine in Tumor,[3],9.25 ± 2.16 % ID/gram
"CC(C)(OC1CC/C=C/CCC1)C(=O)ON1C(=O)CCC1=O (single isomer, unassigned) [49b, (E-Minor)-2,5-dioxopyrrolidin-1-yl 2-(cyclooct-4-en-1-yloxy)-2-methylpropanoate]",Second order kinetic constant,[1],148500 ± 12040 M⁻¹ s⁻¹
"O=C(ON1C(=O)CCC1=O)C(OC1CC/C=C/CCC1)c1ccccc1 (single isomer, unassigned) [46b, (E-Minor)-2,5-dioxopyrrolidin-1-yl 2-(cyclooct-4-en-1-yloxy)-2-phenylacetate]",Second order kinetic constant,[1],163200 ± 2871 M⁻¹ s⁻¹
"O=C(ON1C(=O)CCC1=O)C(OC1CC/C=C/CCC1)c1ccccc1 (single isomer, unassigned) [46a, (E-Major)-2,5-dioxopyrrolidin-1-yl 2-(cyclooct-4-en-1-yloxy)-2-phenyl acetate]",Second order kinetic constant,[1],28630 ± 1590 M⁻¹ s⁻¹
"O=C(ON1C(=O)CCC1=O)c1ccc(OC2CC/C=C/CCC2)cc1 (single isomer, unassigned) [52b, (E-Minor)-2,5-dioxopyrrolidin-1-yl 4-(cyclooct-4-en-1-yloxy)benzoate]",Second order kinetic constant,[1],333300 ± 625 M⁻¹ s⁻¹
"O=C(COC1CC/C=C/CCC1)ON1C(=O)CCC1=O (single isomer, unassigned) [44b, (E-Minor)-2,5-dioxopyrrolidin-1-yl 2-(cyclooct-4-en-1-yloxy)acetate]",Second order kinetic constant,[1],134800 ± 997 M⁻¹ s⁻¹
"CC1(CC(=O)ON2C(=O)CCC2=O)CC/C=C/CCC1 (centres unmarked) [compound 58, (E-Major,minor)-2,5-Dioxopyrrolidin-1-yl 2-(1-methylcyclooct-4-en-1-yl)acetate]",Second order kinetic constant,[1],323500 ± 43320 M⁻¹ s⁻¹
"O=C(ON1C(=O)CCC1=O)c1ccc(OC2CC/C=C/CCC2)cc1 (single isomer, unassigned) [52a, (E-Major)-2,5-dioxopyrrolidin-1-yl 4-(cyclooct-4-en-1-yloxy)benzoate]",Second order kinetic constant,[1],20930 ± 3735 M⁻¹ s⁻¹
